From US20140135310A1, “SULPHONAMIDE DERIVATIVES OF ALICYCLIC AMINES FOR THE TREATMENT OF CENTRAL NERVOUS SYSTEM DISEASES” (Adamed Sp. z o.o., priority 2011, published 2014)
pKi: −log10 of the molar value.

Tests used:
M3 muscarinic receptors = target: T1, M3 muscarinic receptors (Homo sapiens, UniProt P20309); experiment: Radioligand binding assay, muscarinic M3 receptors; details: test compound 1×10^−6 M
T1 construct: expressed in transfected cells; host or cells: CHO cells
Excerpt: (§1) The specific ligand binding to the receptors is defined as the difference between the total binding and the non-specific binding determined in the presence of the excess of unlabelled ligand.
(§2) The results are expressed as a percent of control specific binding ((measured specific binding/control specific binding)×100) and as a percent inhibition of control specific binding (100−((measured specific binding/control specific binding)×100)) obtained in the presence of the test compounds. The specific ligand binding to the receptors is defined as the difference between the total binding and the nonspecific binding determined in the presence of an excess of unlabelled ligand. Scintillation counting was the method of detection of ligand binding. The IC50 values (concentration causing a half-maximal inhibition of control specific binding) were determined by non-linear regression analysis of the competition curves generated with mean replicate values using Hill equation curve fitting (Y=D+[(A−D)/(1+(C/C50)nH)], where Y=specific binding, D=minimum specific binding, A=maximum specific binding, C=compound concentration, C50=IC50, and nH=slope factor). This analysis was performed using a software developed at Cerep (Hill software) and validated by comparison with data generated by the commercial software SigmaPlot® 4.0 for Windows® (© 1997 by SPSS Inc.). The inhibition constants (Ki) were calculated using the Cheng Prusoff equation (Ki=IC50/(1+(L/KD)), where L=concentration of radioligand in the assay, and KD=affinity of the radioligand for the receptor). A scatchard plot was used to determine the Kd.
Experimental conditions for tests are given in Table 10, and results of tests for representative compounds are given in Table 11.

5-HT6 receptor = target: T2, 5-HT6 receptor (Homo sapiens, UniProt P50406); experiment: Radioligand binding assay, serotoninergic 5-HT6 receptors; details: for inhibition at 1 µM / 5-HT6 [%]: binding assay result in %, Table 5a; for pKi: read-out: Inhibition constants Ki, 5-HT6;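 as to 5-HT6 [%]: test compound at 1 µM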
T2 construct: purchased PerkinElmer
Method in brief: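 Values are Ki from Cheng–Prusoff, taking IC50 from Hill nonlinear regression of competition curves and KD from a Scatchard plot. Specific binding was total minus binding with excess unlabelled ligand. Radioligand displacement was detected by scintillation counting, and data were also reported as percent of control specific binding.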

5-HT2C receptor = target: T3, 5-HT2C receptor (Homo sapiens, UniProt P28335); experiment: Radioligand binding assay, serotoninergic 5-HT2C receptors; details: test compound 1×10^−6 M
T3 construct: expressed in transfected cells; host or cells: HEK-293 cells
T3 sequence (P28335 33-458): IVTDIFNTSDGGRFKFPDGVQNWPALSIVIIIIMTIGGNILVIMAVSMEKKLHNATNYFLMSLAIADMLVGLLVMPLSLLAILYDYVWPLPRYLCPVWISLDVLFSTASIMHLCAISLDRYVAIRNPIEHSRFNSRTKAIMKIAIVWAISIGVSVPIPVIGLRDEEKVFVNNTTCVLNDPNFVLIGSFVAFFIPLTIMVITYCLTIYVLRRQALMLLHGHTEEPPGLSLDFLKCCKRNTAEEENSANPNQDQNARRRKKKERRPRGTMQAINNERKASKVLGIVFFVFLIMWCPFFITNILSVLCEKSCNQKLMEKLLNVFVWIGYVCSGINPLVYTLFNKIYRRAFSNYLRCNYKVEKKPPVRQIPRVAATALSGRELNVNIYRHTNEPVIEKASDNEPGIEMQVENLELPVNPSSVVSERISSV
Excerpt: as §1, §2
Experimental conditions for tests are given in Table 4, and results of tests for representative compounds of the invention are given in Table 5a and 5b (receptors 5-HT1A, 5-HT2A, 5-HT6 and 5-HT7) and in Table 6 (receptors 5-HT2C).

[1] = target: T4, 5-HT1A receptor (rat hippocampus) (Rattus norvegicus, UniProt P19327); experiment: Radioligand binding assay, serotoninergic 5-HT1A receptors; details: binding assay result in %, Table 5a;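 also: test compound at 1 µM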
T4 construct: hippocampus; from tissue; host or cells: rat hippocampus
T4 sequence (P19327 1-422): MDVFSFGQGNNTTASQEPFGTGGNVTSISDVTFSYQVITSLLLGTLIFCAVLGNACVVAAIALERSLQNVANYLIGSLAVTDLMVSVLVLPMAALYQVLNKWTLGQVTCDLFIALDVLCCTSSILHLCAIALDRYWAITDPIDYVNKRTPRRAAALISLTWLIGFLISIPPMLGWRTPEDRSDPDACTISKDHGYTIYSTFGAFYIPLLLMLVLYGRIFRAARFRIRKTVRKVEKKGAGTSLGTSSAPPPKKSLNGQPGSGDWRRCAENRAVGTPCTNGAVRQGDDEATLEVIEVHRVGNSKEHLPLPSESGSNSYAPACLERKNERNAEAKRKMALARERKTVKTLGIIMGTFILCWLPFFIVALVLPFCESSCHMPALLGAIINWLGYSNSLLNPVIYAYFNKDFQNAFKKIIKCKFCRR

[2] = target: dopaminergic receptors D3 (Homo sapiens, UniProt P35462); experiment: Radioligand binding assay, dopaminergic D3 receptors; details: test compound 1×10^−6 M
Method in brief: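 Scintillation read-out. Specific = total − nonspecific (excess cold ligand). Data as % of control specific binding / % inhibition; IC50 by Hill fit; Ki = IC50/(1+L/KD), KD from Scatchard plot.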

[3] = tested on: α1 adrenergic receptors (rat cerebral cortex); experiment: Radioligand binding assay, adrenergic α1 receptors; details: test compound 1×10^−6 M
Method in brief: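 Values derive from radioligand displacement, with non-specific binding defined by excess cold ligand and detection by scintillation. Hill-fit IC50s were converted to Ki via Cheng-Prusoff using Scatchard-derived Kd; percent inhibition of control specific binding also reported.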

dopaminergic receptors D3, sequence (P35462 whole entry): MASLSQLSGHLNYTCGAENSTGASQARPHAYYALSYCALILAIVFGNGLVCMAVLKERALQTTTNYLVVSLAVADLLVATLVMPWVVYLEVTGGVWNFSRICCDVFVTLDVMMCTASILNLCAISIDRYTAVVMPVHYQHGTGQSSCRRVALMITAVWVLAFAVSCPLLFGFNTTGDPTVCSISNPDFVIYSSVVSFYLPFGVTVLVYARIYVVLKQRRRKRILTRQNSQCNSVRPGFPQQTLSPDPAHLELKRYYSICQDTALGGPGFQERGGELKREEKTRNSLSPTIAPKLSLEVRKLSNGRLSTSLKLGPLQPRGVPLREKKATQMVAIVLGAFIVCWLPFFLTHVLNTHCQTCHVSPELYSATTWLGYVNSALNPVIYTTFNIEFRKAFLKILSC
T1 sequence (P20309 whole entry): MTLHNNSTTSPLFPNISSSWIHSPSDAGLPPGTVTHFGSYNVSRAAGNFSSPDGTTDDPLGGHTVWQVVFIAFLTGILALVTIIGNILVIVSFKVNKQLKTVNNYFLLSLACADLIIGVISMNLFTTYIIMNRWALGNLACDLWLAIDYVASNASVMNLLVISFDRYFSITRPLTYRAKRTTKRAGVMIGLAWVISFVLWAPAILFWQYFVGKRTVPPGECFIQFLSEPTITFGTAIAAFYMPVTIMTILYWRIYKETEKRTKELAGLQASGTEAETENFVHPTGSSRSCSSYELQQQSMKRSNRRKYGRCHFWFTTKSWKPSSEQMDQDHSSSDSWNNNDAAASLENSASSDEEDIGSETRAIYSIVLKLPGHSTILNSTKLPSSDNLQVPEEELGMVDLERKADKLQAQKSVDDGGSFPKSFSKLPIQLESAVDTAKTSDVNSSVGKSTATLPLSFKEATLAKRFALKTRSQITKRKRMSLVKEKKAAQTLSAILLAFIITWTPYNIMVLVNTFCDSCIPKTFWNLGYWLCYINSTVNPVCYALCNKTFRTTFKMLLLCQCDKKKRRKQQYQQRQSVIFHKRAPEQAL
T2 sequence (P50406 whole entry): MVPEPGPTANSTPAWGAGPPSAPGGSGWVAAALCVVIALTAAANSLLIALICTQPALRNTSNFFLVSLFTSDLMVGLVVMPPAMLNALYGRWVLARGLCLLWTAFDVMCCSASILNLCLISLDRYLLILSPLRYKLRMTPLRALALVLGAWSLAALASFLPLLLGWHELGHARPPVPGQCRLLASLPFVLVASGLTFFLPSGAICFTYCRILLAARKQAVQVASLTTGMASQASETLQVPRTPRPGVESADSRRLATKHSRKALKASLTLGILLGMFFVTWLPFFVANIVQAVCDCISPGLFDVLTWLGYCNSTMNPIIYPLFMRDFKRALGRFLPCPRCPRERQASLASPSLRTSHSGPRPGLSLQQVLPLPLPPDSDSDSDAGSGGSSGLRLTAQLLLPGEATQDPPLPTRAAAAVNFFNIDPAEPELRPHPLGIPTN

SMILES | inhibition at 1 µM (M3 muscarinic receptors) [%] | inhibition at 1 µM (5-HT6 receptor) [%] | inhibition at 1 µM (5-HT2C receptor) [%] | inhibition at 1 µM [1] [%] | inhibition at 1 µM [2] [%] | α1 [%] [3] [%] | pKi (5-HT6 receptor) | M3 [%] (M3 muscarinic receptors) | 5-HT6 [%] (5-HT6 receptor) | 5-HT2C [%] (5-HT2C receptor) | 5-HT1A [%] [1] [%] | D3 [%] [2] [%]
O=S(=O)(NCC1CN(CCOc2cccc3c2OCCO3)C1)c1cc2ccccc2o1 [Compound 186, N-[[1-[2-(2,3-Dihydro-1,4-benzodioxin-5-yloxy)ethyl]azetidin-3-yl]methyl]-benzofuran-2-sulphonamide] | -9 | 32 | 79 | 98 | 78 | 80 |  |  |  |  |  | 
O=S(=O)(N[C@H]1CCN(CCCc2noc3cc(F)ccc23)C1)c1cc2ccc(Cl)cc2s1 [Compound 199, 6-Chloro-N-[(3S)-1-[3-(6-fluoro-1,2-benzoxazol-3-yl)propyl]pyrrolidin-3-yl]benzothiophene-2-sulphonamide] | 38 | 91 | 83 | 38 | 88 | 66 | 7.00 |  |  |  |  | 
O=S(=O)(NCC1CCN(CCOc2cccc3c2OCCO3)C1)c1ccc(Br)cc1 (stereo not shown) [Compound 305, 4-Bromo-N-[[1-[2-(2,3-dihydro-1,4-benzodioxin-5-yloxy)ethyl]pyrrolidin-3-yl]methyl]benzenesulphonamide] | 11 | 52 | 59 | 101 | 48 | 84 |  |  |  |  |  | 
O=S(=O)(NCC1CCN(CCCc2noc3cc(F)ccc23)C1)c1cccc2ccccc12 (stereo not shown) [Compound 239, N-[[1-[3-(6-Fluoro-1,2-benzoxazol-3-yl)propyl]pyrrolidin-3-yl]methyl]naphthalene-1-sulphonamide] | 23 | 97 | 49 | 56 | 76 | 91 |  |  |  |  |  | 
Cc1ccc2sc(S(=O)(=O)NC3CCN(CCCc4noc5cc(F)ccc45)C3)cc2c1 (stereo not shown) [Compound 226, N-[1-[3-(6-Fluoro-1,2-benzoxazol-3-yl)propyl]pyrrolidin-3-yl]-5-methylbenzothiophene-2-sulphonamide] | 8 | 92 | 89 | 43 | 95 | 73 |  |  |  |  |  | 
O=S(=O)(NC1CN(CCOc2cccc3c2OCCO3)C1)c1ccc(Cl)cc1 [Compound 92, 4-Chloro-N-[1-[2-(2,3-dihydro-1,4-benzodioxan-8-yloxy)ethyl]azetidin-3-yl]benzene-sulphonamide] |  |  |  |  |  | 47 |  | 4 | 23 | 52 | 100 | 60
Cc1c(S(=O)(=O)N[C@H]2CCN(CCCc3noc4cc(F)ccc34)C2)sc2ccc(F)cc12 [Compound 203, 5-Fluoro-N-[(3S)-1-[3-(6-fluoro-1,2-benzoxazol-3-yl)propyl]pyrrolidin-3-yl]-3-methyl-benzothiophene-2-sulphonamide] | 12 | 100 | 90 | 60 | 95 | 91 | 7.92 |  |  |  |  | 
O=S(=O)(NCC1CN(CCCc2noc3cc(F)ccc23)C1)c1cc2ccccc2s1 [Compound 127, N-[[1-[3-(6-Fluoro-1,2-benzoxazol-3-yl)propyl]azetidin-3-yl]methyl]benzo-thiophene-2-sulphonamide] | 1 |  | 84 |  |  | 93 | 7.74 |  | 96 |  | 71 | 79
Cc1cccc(S(=O)(=O)NC2CCN(CCCc3c[nH]c4ccc(F)cc34)C2)c1 (stereo not shown) [Compound 78, N-[1-[3-(5-Fluoro-1H-indol-3-yl)propyl]pyrrolidin-3-yl]-3-methyl-benzenesulphonamide] | 5 | 94 | 78 | 99 | 98 | 39 | 7.38 |  |  |  |  | 
O=S(=O)(NCC1CCN(CCOc2cccc3c2OCCO3)C1)c1ccc(F)c(Cl)c1 (stereo not shown) [Compound 317, 3-Chloro-N-[[1-[2-(2,3-dihydro-1,4-benzodioxin-5-yloxy)ethyl]pyrrolidin-3-yl]methyl]-4-fluorobenzenesulphonamide] | 8 | 76 | 45 | 100 | 49 | 84 |  |  |  |  |  | 
O=S(=O)(NCC1CCN(CCOc2cccc3c2OCCO3)C1)c1cccc(O)c1 (stereo not shown) [Compound 303, N-[[1-[2-(2,3-Dihydro-1,4-benzodioxin-5-yloxy)ethyl]pyrrolidin-3-yl]-methyl]-3-hydroxy-benzenesulphonamide] | 9 | 48 | 47 | 96 | 52 | 89 |  |  |  |  |  | 
Cn1ccc2cc(S(=O)(=O)NCC3CCN(CCOc4cccc5c4OCCO5)C3)ccc21 (stereo not shown) [Compound 308, N-[[1-[2-(2,3-Dihydro-1,4-benzodioxin-5-yloxy)ethyl]pyrrolidin-3-yl]methyl]-1-methyl-indole-5-sulphonamide] | 13 | 44 | 61 | 98 | 43 | 69 |  |  |  |  |  | 
O=S(=O)(NC1CCN(CCCc2c[nH]c3ccc(Cl)cc23)C1)c1cccc(Cl)c1 (stereo not shown) [Compound 84, 3-Chloro-N-[1-[3-(5-chloro-1H-indol-3-yl)propyl]pyrrolidin-3-yl]benzenesulphonamide] | 3 | 96 | 88 | 99 | 99 | 51 | 7.74 |  |  |  |  | 
O=S(=O)(N[C@H]1CCN(CCCc2noc3cc(F)ccc23)C1)c1csc2ccccc12 [Compound 225, N-[(3S)-1-[3-(6-Fluoro-1,2-benzoxazol-3-yl)propyl]pyrrolidin-3-yl]benzothiophene-3-sulphonamide] | 23 | 99 | 72 | 62 | 84 | 93 | 8.80 |  |  |  |  | 
O=S(=O)(N[C@H]1CCN(CCCc2noc3cc(F)ccc23)C1)c1ccc2cc(Cl)ccc2c1 [Compound 201, 6-Chloro-N-[(3S)-1-[3-(6-fluoro-1,2-benzoxazol-3-yl)propyl]pyrrolidin-3-yl]naphthalene-2-sulphonamide] | 9 | 94 | 72 | 32 | 84 | 82 | 7.10 |  |  |  |  | 
